# Measured values taken from US8168651B2, “Protein kinase modulators” (Cylene Pharmaceuticals, Inc., priority 2008, dated 2012).
# Columns and labels:
# Assay in all cases: Standardized radiometric kinase assays, percentage of activity at 0.5 μM;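 note: Read-out is ³³P-labelled substrate protein phosphorylated by each kinase, captured on filters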
# [1] = biological target: each individual kinase of the panel (Homo sapiens, UniProt Q16832)
# [2] = biological target: each individual kinase of the panel (Homo sapiens, UniProt Q13464); conditions: for % Activity: ROCK-I(h)
# [3] = test system: each individual kinase of the panel; conditions: for % Activity: MAPK1(h)
# [4] = biological target: each individual kinase of the panel (Homo sapiens, UniProt O94804); conditions: for % Activity: LOK(h)
# [5] = biological target: each individual kinase of the panel (Homo sapiens, UniProt Q9NWZ3); conditions: for % Activity: IRAK4(h)
# [6] = biological target: each individual kinase of the panel (Homo sapiens, UniProt O14757); conditions: for % Activity: CHK1(h)
# [7] = biological target: each individual kinase of the panel (Homo sapiens, UniProt P10721); conditions: for % Activity: cKit(h)
# [8] = biological target: each individual kinase of the panel (Homo sapiens, UniProt Q15418); conditions: for % Activity: Rsk1(h)
# [9] = biological target: each individual kinase of the panel (Homo sapiens, UniProt P31749); conditions: for % Activity: PKBα(h)
# [10] = biological target: each individual kinase of the panel (Homo sapiens, UniProt P16234, D842V); conditions: for % Activity: PDGFRα(D842V)(h)
# [11] = biological target: each individual kinase of the panel (Homo sapiens, UniProt P08922)
# [12] = biological target: each individual kinase of the panel (Homo sapiens, UniProt Q04912); conditions: for % Activity: Ron(h)
# [13] = biological target: each individual kinase of the panel (Homo sapiens, UniProt Q04759); conditions: for % Activity: PKCθ(h)
# [14] = biological target: each individual kinase of the panel (Homo sapiens, UniProt P50750); conditions: for % Activity: CDK9/cyclin T1 (h)
# [15] = biological target: each individual kinase of the panel (Homo sapiens, UniProt Q96SB4); conditions: for % Activity: SRPK1(h)
# [16] = biological target: each individual kinase of the panel (Homo sapiens, UniProt P00533, L858R/T790M); conditions: for % Activity: EGFR(T790M,L858R)(h)
# [17] = biological target: each individual kinase of the panel (Homo sapiens, UniProt P23443); conditions: for % Activity: p70S6K(h)
# [18] = biological target: each individual kinase of the panel (Homo sapiens, UniProt P08581); conditions: for % Activity: Met(h)
# [19] = biological target: each individual kinase of the panel (Homo sapiens, UniProt Q05397); conditions: for % Activity: FAK(h)
# [20] = biological target: each individual kinase of the panel (Homo sapiens, UniProt P00533, L861Q); conditions: for % Activity: EGFR(L861Q)(h)
# [21] = biological target: each individual kinase of the panel (Homo sapiens, UniProt P07949); conditions: for % Activity: Ret(h)
# [22] = biological target: each individual kinase of the panel (Homo sapiens, UniProt Q92630); conditions: for % Activity: DYRK2(h)
# [23] = biological target: each individual kinase of the panel (Homo sapiens, UniProt Q9NYY3); conditions: for % Activity: Snk(h)
# [24] = biological target: each individual kinase of the panel (Homo sapiens, UniProt Q15375); conditions: for % Activity: EphA7(h)
# [25] = biological target: each individual kinase of the panel (Homo sapiens, UniProt P36888); conditions: for % Activity: Flt3(h)
# [26] = biological target: each individual kinase of the panel (Homo sapiens, UniProt P16591); conditions: for % Activity: Fer(h)
# [27] = biological target: each individual kinase of the panel (Homo sapiens, UniProt P19784); conditions: for % Activity: CK2α2(h)
# [28] = biological target: each individual kinase of the panel (Homo sapiens, UniProt Q9UEE5); conditions: for % Activity: DRAK1(h)
# [29] = biological target: each individual kinase of the panel (Homo sapiens, UniProt Q99683); conditions: for % Activity: ASK1(h)
# Sequence of each individual kinase of the panel (Homo sapiens, UniProt Q16832) (Q16832 22-855 limits assumed): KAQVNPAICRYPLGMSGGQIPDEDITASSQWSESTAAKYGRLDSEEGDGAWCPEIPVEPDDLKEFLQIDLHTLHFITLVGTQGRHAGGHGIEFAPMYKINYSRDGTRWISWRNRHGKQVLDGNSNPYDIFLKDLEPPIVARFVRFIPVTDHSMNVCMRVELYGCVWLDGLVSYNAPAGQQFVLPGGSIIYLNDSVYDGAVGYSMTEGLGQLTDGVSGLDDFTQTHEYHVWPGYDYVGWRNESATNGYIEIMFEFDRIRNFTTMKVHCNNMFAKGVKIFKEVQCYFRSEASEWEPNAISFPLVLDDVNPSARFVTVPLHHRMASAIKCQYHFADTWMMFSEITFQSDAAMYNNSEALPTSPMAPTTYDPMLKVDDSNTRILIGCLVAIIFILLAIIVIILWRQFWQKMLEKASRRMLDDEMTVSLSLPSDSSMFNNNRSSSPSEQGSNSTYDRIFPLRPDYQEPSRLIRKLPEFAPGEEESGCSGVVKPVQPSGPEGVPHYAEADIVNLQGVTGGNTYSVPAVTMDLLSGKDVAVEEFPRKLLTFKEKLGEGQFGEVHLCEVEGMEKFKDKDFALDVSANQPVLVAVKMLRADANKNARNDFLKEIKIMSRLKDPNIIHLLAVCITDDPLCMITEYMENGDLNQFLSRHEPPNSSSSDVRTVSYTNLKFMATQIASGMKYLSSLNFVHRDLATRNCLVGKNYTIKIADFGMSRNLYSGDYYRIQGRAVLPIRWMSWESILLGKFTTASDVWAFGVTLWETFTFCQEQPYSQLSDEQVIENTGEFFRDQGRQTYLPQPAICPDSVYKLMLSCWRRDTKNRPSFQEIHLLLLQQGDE
# Sequence of each individual kinase of the panel (Homo sapiens, UniProt P36888) (P36888 27-993 limits assumed): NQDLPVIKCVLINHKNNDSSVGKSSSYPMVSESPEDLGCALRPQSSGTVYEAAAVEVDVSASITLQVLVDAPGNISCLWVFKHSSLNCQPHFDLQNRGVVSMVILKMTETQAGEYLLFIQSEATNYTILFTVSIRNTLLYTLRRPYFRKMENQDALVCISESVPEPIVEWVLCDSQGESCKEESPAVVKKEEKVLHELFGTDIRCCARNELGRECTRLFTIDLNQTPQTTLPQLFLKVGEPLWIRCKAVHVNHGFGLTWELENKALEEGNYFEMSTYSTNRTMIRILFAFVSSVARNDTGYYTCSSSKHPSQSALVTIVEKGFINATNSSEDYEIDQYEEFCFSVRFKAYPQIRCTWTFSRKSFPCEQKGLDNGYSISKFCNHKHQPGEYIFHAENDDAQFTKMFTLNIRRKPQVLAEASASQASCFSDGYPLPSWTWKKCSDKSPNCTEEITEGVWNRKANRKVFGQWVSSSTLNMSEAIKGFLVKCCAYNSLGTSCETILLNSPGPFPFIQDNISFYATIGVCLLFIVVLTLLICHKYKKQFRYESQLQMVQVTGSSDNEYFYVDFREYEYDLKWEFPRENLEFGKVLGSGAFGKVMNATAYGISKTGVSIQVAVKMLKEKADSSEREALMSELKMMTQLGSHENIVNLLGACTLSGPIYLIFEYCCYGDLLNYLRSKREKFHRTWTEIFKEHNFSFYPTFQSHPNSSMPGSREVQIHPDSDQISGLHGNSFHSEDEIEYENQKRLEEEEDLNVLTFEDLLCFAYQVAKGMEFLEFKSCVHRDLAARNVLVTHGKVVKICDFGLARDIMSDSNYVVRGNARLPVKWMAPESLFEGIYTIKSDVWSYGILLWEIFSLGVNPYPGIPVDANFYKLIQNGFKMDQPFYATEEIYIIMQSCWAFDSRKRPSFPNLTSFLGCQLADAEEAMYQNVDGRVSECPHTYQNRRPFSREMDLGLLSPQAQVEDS
# Sequence of each individual kinase of the panel (Homo sapiens, UniProt Q13464) (Q13464 2-1354 limits assumed): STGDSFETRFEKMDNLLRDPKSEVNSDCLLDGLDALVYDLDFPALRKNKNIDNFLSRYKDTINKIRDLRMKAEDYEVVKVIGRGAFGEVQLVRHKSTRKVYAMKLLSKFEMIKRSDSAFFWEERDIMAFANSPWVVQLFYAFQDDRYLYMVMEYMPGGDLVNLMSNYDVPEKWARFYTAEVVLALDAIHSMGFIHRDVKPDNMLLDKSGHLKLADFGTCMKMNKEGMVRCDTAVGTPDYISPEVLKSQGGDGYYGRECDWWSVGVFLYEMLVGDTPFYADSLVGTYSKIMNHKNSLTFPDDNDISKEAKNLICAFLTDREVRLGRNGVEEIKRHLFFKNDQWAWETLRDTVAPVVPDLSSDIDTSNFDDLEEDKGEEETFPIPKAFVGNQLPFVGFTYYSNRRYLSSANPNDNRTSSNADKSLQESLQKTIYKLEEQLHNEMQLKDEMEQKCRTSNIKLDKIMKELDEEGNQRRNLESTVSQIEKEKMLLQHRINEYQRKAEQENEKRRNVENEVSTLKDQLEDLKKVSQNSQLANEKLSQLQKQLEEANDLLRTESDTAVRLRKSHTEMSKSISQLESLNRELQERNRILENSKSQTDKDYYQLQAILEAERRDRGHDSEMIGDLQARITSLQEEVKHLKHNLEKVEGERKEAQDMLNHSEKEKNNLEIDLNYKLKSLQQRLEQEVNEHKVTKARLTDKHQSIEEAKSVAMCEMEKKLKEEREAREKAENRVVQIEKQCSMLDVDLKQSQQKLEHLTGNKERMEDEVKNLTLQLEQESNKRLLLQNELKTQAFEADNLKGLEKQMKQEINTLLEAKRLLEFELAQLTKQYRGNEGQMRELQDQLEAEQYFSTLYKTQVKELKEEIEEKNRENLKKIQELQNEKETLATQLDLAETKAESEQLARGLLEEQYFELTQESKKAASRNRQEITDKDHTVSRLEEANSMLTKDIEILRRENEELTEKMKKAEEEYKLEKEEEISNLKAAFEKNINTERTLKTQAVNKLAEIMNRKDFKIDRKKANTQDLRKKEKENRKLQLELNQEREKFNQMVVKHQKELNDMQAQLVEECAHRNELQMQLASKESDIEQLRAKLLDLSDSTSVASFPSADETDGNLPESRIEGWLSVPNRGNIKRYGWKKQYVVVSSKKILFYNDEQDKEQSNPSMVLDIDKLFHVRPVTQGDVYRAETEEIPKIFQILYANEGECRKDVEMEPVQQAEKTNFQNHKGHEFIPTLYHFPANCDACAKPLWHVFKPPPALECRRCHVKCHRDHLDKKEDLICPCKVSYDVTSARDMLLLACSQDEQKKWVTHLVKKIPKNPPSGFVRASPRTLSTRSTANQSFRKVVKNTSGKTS
# Sequence of each individual kinase of the panel (Homo sapiens, UniProt Q15375) (Q15375 28-998 limits assumed): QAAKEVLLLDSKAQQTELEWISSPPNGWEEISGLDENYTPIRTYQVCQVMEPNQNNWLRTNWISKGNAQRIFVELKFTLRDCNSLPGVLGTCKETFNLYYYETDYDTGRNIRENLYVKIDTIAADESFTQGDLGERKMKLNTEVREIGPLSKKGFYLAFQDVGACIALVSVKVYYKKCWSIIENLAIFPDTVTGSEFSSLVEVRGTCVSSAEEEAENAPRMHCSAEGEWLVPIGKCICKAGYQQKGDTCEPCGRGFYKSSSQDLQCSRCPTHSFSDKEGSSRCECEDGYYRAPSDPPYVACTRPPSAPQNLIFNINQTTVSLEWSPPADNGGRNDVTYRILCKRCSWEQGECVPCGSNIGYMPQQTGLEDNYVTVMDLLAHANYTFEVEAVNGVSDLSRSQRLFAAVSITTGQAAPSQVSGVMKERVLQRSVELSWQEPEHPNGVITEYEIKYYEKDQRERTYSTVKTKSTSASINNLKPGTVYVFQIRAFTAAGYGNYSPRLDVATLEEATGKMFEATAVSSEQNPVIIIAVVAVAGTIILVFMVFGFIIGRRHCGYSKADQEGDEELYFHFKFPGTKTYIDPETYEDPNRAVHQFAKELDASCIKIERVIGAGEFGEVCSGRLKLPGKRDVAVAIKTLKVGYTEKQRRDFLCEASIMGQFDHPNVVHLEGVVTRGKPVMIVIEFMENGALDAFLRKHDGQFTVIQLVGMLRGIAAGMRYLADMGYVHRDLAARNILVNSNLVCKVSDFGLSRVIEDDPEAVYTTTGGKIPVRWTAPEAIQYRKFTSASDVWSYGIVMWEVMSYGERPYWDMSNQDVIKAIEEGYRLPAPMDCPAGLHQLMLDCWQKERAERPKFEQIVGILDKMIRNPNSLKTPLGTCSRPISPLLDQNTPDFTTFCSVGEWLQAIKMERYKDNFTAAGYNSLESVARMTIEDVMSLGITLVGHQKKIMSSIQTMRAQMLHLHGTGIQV
# Sequence of each individual kinase of the panel (Homo sapiens, UniProt P10721) (P10721 26-976 limits assumed): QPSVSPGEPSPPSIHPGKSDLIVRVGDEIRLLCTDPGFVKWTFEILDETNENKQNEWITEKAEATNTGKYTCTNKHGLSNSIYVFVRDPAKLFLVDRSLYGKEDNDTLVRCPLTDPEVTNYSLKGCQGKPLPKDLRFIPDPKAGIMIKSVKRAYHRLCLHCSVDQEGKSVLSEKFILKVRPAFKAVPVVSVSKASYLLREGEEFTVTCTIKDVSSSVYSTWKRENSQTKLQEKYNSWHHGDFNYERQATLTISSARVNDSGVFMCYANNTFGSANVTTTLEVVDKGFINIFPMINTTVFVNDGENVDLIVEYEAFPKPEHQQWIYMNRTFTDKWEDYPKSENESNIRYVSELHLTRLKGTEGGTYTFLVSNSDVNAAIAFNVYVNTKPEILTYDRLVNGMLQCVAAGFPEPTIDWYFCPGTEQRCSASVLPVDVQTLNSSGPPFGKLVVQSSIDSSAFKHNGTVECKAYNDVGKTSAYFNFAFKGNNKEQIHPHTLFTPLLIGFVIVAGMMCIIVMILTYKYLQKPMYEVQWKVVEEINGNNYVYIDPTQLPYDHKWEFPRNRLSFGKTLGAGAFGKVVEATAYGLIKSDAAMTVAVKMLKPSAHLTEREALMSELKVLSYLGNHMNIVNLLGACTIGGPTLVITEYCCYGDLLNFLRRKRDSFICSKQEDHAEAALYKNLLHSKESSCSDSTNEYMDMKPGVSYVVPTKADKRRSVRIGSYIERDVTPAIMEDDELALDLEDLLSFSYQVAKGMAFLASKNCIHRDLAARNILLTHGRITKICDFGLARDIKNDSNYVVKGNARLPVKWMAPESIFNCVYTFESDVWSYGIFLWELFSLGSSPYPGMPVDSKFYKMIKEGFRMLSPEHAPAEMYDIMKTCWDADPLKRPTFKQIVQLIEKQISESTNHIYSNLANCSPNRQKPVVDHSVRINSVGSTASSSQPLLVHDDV
smiles,measurement,setting,value
Clc1ccccc1Nc1nc2c(-c3nnc[nH]3)cccc2c2cnccc12 [A],% Activity,[1]; DDR2(h),90%
same,% Activity,[2],94%
same,% Activity,[3],77%
same,% Activity,[4],63%
same,% Activity,[5],12%
same,% Activity,[6],108%
same,% Activity,[7],89%
same,% Activity,[8],6%
same,% Activity,[9],98%
same,% Activity,[10],17%
same,% Activity,[11]; Ros(h),90%
same,% Activity,[12],99%
same,% Activity,[13],39%
same,% Activity,[14],37%
same,% Activity,[15],107%
same,% Activity,[16],20%
same,% Activity,[17],77%
same,% Activity,[18],22%
same,% Activity,[19],30%
same,% Activity,[20],60%
same,% Activity,[21],43%
same,% Activity,[22],−4%
same,% Activity,[23],79%
same,% Activity,[24],96%
same,% Activity,[25],5%
same,% Activity,[26],90%
same,% Activity,[27],73%
same,% Activity,[28],75%
same,% Activity,[29],92%
NC(=O)c1cccc2c1nc(Nc1cccc(Cl)c1)c1ccncc12 [B],% Activity,[2],97%
same,% Activity,[3],86%
same,% Activity,[4],87%
same,% Activity,[5],81%
same,% Activity,[6],91%
same,% Activity,[7],88%
same,% Activity,[8],21%
same,% Activity,[9],90%
same,% Activity,[10],15%
same,% Activity,[12],95%
same,% Activity,[13],83%
same,% Activity,[14],18%
same,% Activity,[15],91%
same,% Activity,[16],59%
same,% Activity,[17],87%
same,% Activity,[18],96%
same,% Activity,[19],106%
same,% Activity,[20],54%
same,% Activity,[21],73%
same,% Activity,[22],5%
same,% Activity,[23],82%
same,% Activity,[24],90%
same,% Activity,[25],7%
same,% Activity,[26],103%
same,% Activity,[27],51%
same,% Activity,[28],15%
same,% Activity,[29],93%
C#Cc1cccc(Nc2nc3cc(C(=O)O)ccc3c3cncnc23)c1 [drawing 1135],DDR2 percentage of activity,[1],−9%
same,ROCK-I percentage of activity,[2],3%
same,MLCK percentage of activity,[3],−3%
same,PDGFRB (V561D) percentage of activity,[3],−4%
same,PRKCB2 percentage of activity,[3],1%
same,IRAK4 percentage of activity,[5],−19%
same,CHK1 percentage of activity,[6],1%
same,cKit(h) percentage of activity,[7],−14%
same,RPS6KA1 percentage of activity,[8],22%
same,AKT1 percentage of activity,[9],−4%
same,PDGFRA (D842V) percentage of activity,[10],−9%
same,ROS percentage of activity,[11],−10%
same,RON percentage of activity,[12],−6%
same,PRKCT percentage of activity,[13],−11%
same,CDK9/cyclin T1 percentage of activity,[14],0%
same,SRPK1 percentage of activity,[15],34%
same,p70S6K percentage of activity,[17],20%
same,MET percentage of activity,[18],−22%
same,FAK percentage of activity,[19],3%
same,RET percentage of activity,[21],14%
same,DYRK2 percentage of activity,[22],50%
same,PLK2 percentage of activity,[23],−17%
same,EPHA7 percentage of activity,[24],1%
same,FLT3 percentage of activity,[25],58%
same,FER percentage of activity,[26],−3%
same,DRAK1 percentage of activity,[28],38%
same,ASK percentage of activity,[29],−16%
C#Cc1cccc(Nc2nc3cc(C(=O)O)ccc3c3cnccc23)c1 [drawing 1137],DDR2 percentage of activity,[1],12%
same,ROCK-I percentage of activity,[2],12%
same,LOK percentage of activity,[4],72%
same,IRAK4 percentage of activity,[5],4%
same,CHK1 percentage of activity,[6],13%
same,cKit(h) percentage of activity,[7],15%
same,RPS6KA1 percentage of activity,[8],54%
same,AKT1 percentage of activity,[9],7%
same,PDGFRA (D842V) percentage of activity,[10],78%
same,ROS percentage of activity,[11],5%
same,RON percentage of activity,[12],9%
same,PRKCT percentage of activity,[13],10%
same,CDK9/cyclin T1 percentage of activity,[14],27%
same,SRPK1 percentage of activity,[15],63%
same,"EGFR(T790M, L858R) percentage of activity",[16],26%
same,p70S6K percentage of activity,[17],36%
same,MET percentage of activity,[18],−16%
same,FAK percentage of activity,[19],−2%
same,EGFR(L861Q) percentage of activity,[20],59%
same,RET percentage of activity,[21],35%
same,DYRK2 percentage of activity,[22],55%
same,PLK2 percentage of activity,[23],30%
same,EPHA7 percentage of activity,[24],5%
same,FLT3 percentage of activity,[25],90%
same,FER percentage of activity,[26],6%
same,DRAK1 percentage of activity,[28],65%
same,ASK percentage of activity,[29],−1%
NC(=O)c1ccc2c(c1)nc(Nc1cccc(Cl)c1)c1ccncc12 [drawing 1138],DDR2 percentage of activity,[1],5%
same,ROCK-I percentage of activity,[2],11%
same,LOK percentage of activity,[4],56%
same,IRAK4 percentage of activity,[5],12%
same,CHK1 percentage of activity,[6],−1%
same,cKit(h) percentage of activity,[7],−10%
same,RPS6KA1 percentage of activity,[8],55%
same,AKT1 percentage of activity,[9],7%
same,PDGFRA (D842V) percentage of activity,[10],64%
same,ROS percentage of activity,[11],−3%
same,RON percentage of activity,[12],−3%
same,PRKCT percentage of activity,[13],1%
same,CDK9/cyclin T1 percentage of activity,[14],45%
same,SRPK1 percentage of activity,[15],7%
same,"EGFR(T790M, L858R) percentage of activity",[16],48%
same,p70S6K percentage of activity,[17],8%
same,MET percentage of activity,[18],−6%
same,FAK percentage of activity,[19],4%
same,EGFR(L861Q) percentage of activity,[20],70%
same,DYRK2 percentage of activity,[22],82%
same,PLK2 percentage of activity,[23],9%
same,EPHA7 percentage of activity,[24],0%
same,FLT3 percentage of activity,[25],100%
same,FER percentage of activity,[26],8%
same,CK2 alpha 2 percentage of activity,[27],96%
same,DRAK1 percentage of activity,[28],−5%
same,ASK percentage of activity,[29],2%
